Test results taken from paper PMC9000570, “Thiazole/Thiadiazole/Benzothiazole Based Thiazolidin-4-One Derivatives as Potential Inhibitors of Main Protease of SARS-CoV-2” (Molecules, 2022).

Tests used:
human normal MRC-5 cells = assay: MTT cell viability assay; format: cell-based; conditions: 48 h
SARS-CoV-2 3CL protease = SARS-CoV-2 3CL protease (Severe acute respiratory syndrome coronavirus 2, UniProt P0DTD1); assay: biochemical; format: biochemical; conditions: for IC50: dose range 0.005 to 50 µM
[1] = tested on: feline infectious peritonitis; conditions: upon treatment of FIP in cats; cited from earlier work

Molecule: Cc1cc(C23CC4CC(CC(C4)C2)C3)cc2sc(N3C(=O)CSC3c3c(F)cccc3F)nc12 (stereo not drawn) [n2]
- inhibition of cellular viability (human normal MRC-5 cells; MRC-5, 0.01 μM): 20.8%
- inhibition of cellular viability (human normal MRC-5 cells; MRC-5, 0.1 μM): 73.4%
- inhibition of cellular viability (human normal MRC-5 cells; MRC-5, 1 μM): 90.7%
- inhibition of cellular viability (human normal MRC-5 cells; MRC-5, 10 μM): 100%
- inhibition at 50 µM (SARS-CoV-2 3CL protease; 50 μM compound): 100%
- IC50 (SARS-CoV-2 3CL protease): 9.98 µM

Molecule: O=C1CSC(c2ccc(Br)cc2)N1c1nc2ccc(C34CC5CC(CC(C5)C3)C4)cc2s1 (stereo not drawn) [m11, 3-(6-(adamantan-1-yl)benzo[d]thiazol-2-yl)-2-(4-bromophenyl)thiazolidin-4-one]
- inhibition of cellular viability (human normal MRC-5 cells; MRC-5, 0.01 μM): 65.0%
- inhibition of cellular viability (human normal MRC-5 cells; MRC-5, 0.1 μM): 81.3%
- inhibition of cellular viability (human normal MRC-5 cells; MRC-5, 1 μM): 89.4%
- inhibition of cellular viability (human normal MRC-5 cells; MRC-5, 10 μM): 100%
- inhibitory activity on main protease (in words) (SARS-CoV-2 3CL protease): moderate activity
- inhibition at 50 µM (SARS-CoV-2 3CL protease; 50 μM compound): 45%
- IC50 (SARS-CoV-2 3CL protease): > 50 µM
- melting point: 275 to 276 °C

Molecule: 3-(5,6-dichlorobenzo[d]thiazol-2-yl)-2-(4-fluorophenyl)thiazolidin-4-one [a3]
- % Inhibition at 50 μM (SARS-CoV-2 3CL protease; 50 μM compound): 0%
- IC50 (SARS-CoV-2 3CL protease): > 50 µM

Molecule: COc1cccc2sc(N3C(=O)CSC3c3ccc([N+](=O)[O-])cc3)nc12 (stereo not drawn) [e2]
- inhibition at 50 µM (SARS-CoV-2 3CL protease; 50 μM compound): 31.3%
- IC50 (SARS-CoV-2 3CL protease): > 50 µM

Molecule: N#Cc1ccc2nc(N3C(=O)CSC3c3c(F)cccc3Cl)sc2c1 (stereo not drawn) [k3]
- inhibition of cellular viability (human normal MRC-5 cells; MRC-5, 0.01 μM): 57%
- inhibition of cellular viability (human normal MRC-5 cells; MRC-5, 0.1 μM): 64%
- inhibition of cellular viability (human normal MRC-5 cells; MRC-5, 1 μM): 100%
- inhibition of cellular viability (human normal MRC-5 cells; MRC-5, 10 μM): 100%
- inhibition at 50 µM (SARS-CoV-2 3CL protease; 50 μM compound): 100%
- IC50 (SARS-CoV-2 3CL protease): 0.01 µM

Molecule: O=C1CSC(c2ccc(F)cc2)N1c1nc2ccc(Cl)cc2s1 (stereo not drawn) [c1]
- inhibition of cellular viability (human normal MRC-5 cells; MRC-5, 0.01 μM): 31.0%
- inhibition of cellular viability (human normal MRC-5 cells; MRC-5, 0.1 μM): 43,0%
- inhibition of cellular viability (human normal MRC-5 cells; MRC-5, 1 μM): 36.1%
- inhibition of cellular viability (human normal MRC-5 cells; MRC-5, 10 μM): 80.3%
- inhibition at 50 µM (SARS-CoV-2 3CL protease; 50 μM compound): 88%
- IC50 (SARS-CoV-2 3CL protease): 4.74 µM

Molecule: O=C1CSC(c2ccc(O)cc2)N1c1nc2ccc(Cl)cc2s1 (stereo not drawn) [c5]
- inhibitory activity on main protease (in words) (SARS-CoV-2 3CL protease): inactive
- inhibition at 50 µM (SARS-CoV-2 3CL protease; 50 μM compound): 7.87%
- IC50 (SARS-CoV-2 3CL protease): > 50 µM

Molecule: CC(C)CC(NC(=O)OCc1ccccc1)C(=O)NC(CC1CCNC1=O)C(O)S(=O)(=O)O (stereo not drawn) [GC376]
- side effects [1]: subcutaneous fibrosis, transient stinging at the injection sites, hair loss, and abnormal eruption of permanent teeth in juvenile cats

Molecule: O=C1CSC(c2c(F)cccc2Cl)N1c1nc2cccc(Cl)c2s1 (stereo not drawn) [a2]
- inhibition of cellular viability (human normal MRC-5 cells; MRC-5, 0.01 μM): 68.5%
- inhibition of cellular viability (human normal MRC-5 cells; MRC-5, 0.1 μM): 78.4%
- inhibition of cellular viability (human normal MRC-5 cells; MRC-5, 1 μM): 95.5%
- inhibition of cellular viability (human normal MRC-5 cells; MRC-5, 10 μM): 100%
- inhibition at 50 µM (SARS-CoV-2 3CL protease; 50 μM compound): 91.3%

Molecule: O=C1CSC(c2ccc(Cl)cc2)N1c1nc2ccc(OC(F)(F)F)cc2s1 (stereo not drawn) [h8]
- inhibition at 50 µM (SARS-CoV-2 3CL protease; 50 μM compound): 3.04%
- IC50 (SARS-CoV-2 3CL protease): > 50 µM

Molecule: O=C1CSC(c2ccc(F)cc2)N1c1nc2c(Cl)cccc2s1 (stereo not drawn) [d1]
- inhibition at 50 µM (SARS-CoV-2 3CL protease; 50 μM compound): 6.72%
- IC50 (SARS-CoV-2 3CL protease): > 50 µM

Molecule: O=C1CSC(c2c(F)cccc2Cl)N1c1nc2ccc(C34CC5CC(CC(C5)C3)C4)cc2s1 (stereo not drawn) [m2]
- inhibition at 50 µM (SARS-CoV-2 3CL protease; 50 μM compound): 2.79%
- IC50 (SARS-CoV-2 3CL protease): > 50 µM

Molecule: O=C1CSC(c2ccc(F)cc2)N1c1nc2ccc(F)cc2s1 (stereo not drawn) [b1]
- inhibition at 50 µM (SARS-CoV-2 3CL protease; 50 μM compound): 0%
- IC50 (SARS-CoV-2 3CL protease): > 50 µM

Molecule: O=C1CSC(c2ccc(F)cc2)N1c1nc2ccc(OC(F)(F)F)cc2s1 (stereo not drawn) [h6]
- inhibition at 50 µM (SARS-CoV-2 3CL protease; 50 μM compound): 25.2%
- IC50 (SARS-CoV-2 3CL protease): > 50 µM

Molecule: O=C1CSC(c2c(F)cccc2F)N1c1nc2cccc(Cl)c2s1 (stereo not drawn) [a1]
- inhibition at 50 µM (SARS-CoV-2 3CL protease; 50 μM compound): 0%
- IC50 (SARS-CoV-2 3CL protease): > 50 µM
